Assay: mn = molality of the nth substance listed, in mol/kg
Settings: 101.3 kPa, Liquid; for speed of sound: Sing-around technique in a fixed-path interferometer; for mass density: Vibrating tube method

N[C@@H](Cc1ccc(O)cc1)C(=O)O [3-(p-hydroxyphenyl)-L-alanine] + O
Settings	mass density, 298.15 K [kg/m3]	mass density, 308.15 K [kg/m3]	mass density, 318.15 K [kg/m3]	speed of sound, 298.15 K [m/s]	speed of sound, 308.15 K [m/s]	speed of sound, 318.15 K [m/s]
m1 = 0.000125	997.061	994.051	990.231	1496.6	1519.6	1536.3
m1 = 0.00025	997.068	994.058	990.238	1496.8	1519.7	1536.5
m1 = 0.0005	997.082	994.072	990.251	1496.7	1519.8	1536.3
m1 = 0.001	997.112	994.101	990.278	1497.2	1519.7	1536.8
m1 = 0.00125	997.125	994.114	990.29	1496.8	1520.2	1536.4
m1 = 0.0015	997.138	994.126	990.301	1496.8	1519.8	1536.4
m1 = 0.002	997.168	994.152	990.318	1496.8	1519.8	1536.5

N[C@@H](CCC(=O)O)C(=O)O [L-glutamic acid] + O
Settings	mass density, m1 = 0.01 [kg/m3]	mass density, m1 = 0.02 [kg/m3]	mass density, m1 = 0.03 [kg/m3]	mass density, m1 = 0.04 [kg/m3]	mass density, m1 = 0.05 [kg/m3]	speed of sound, m1 = 0.01 [m/s]	speed of sound, m1 = 0.02 [m/s]	speed of sound, m1 = 0.03 [m/s]	speed of sound, m1 = 0.04 [m/s]	speed of sound, m1 = 0.05 [m/s]
298.15 K	997.642	998.213	998.786	999.352	999.936	1497.4	1498.1	1498.9	1499.6	1500.3
308.15 K	994.598	995.178	995.742	996.302	996.73	1520.4	1521	1521.8	1522.3	1523.2
318.15 K	990.784	991.318	991.875	992.445	993.001	1537	1537.7	1538.1	1539	1539.3

— the NIST ThermoML archive (doi:10.1016/j.tca.2014.03.004)
